The record followed here is US10729684B2, “Alkynyl dihydroquinoline sulfonamide compounds” (AMGEN INC., priority 2015, dated 2020).

pIC50: −log10 of the molar value.

The nature of one data set: RLM in vitro. Conditions: b278 calls it HLM data in vitro.
A further data set addresses human PXR (Homo sapiens (Human), UniProt O75469). In words: human PXR @ 2 uM POC.
In another data set the target is hNav1.7 (Homo sapiens (Human), UniProt Q15858). Put plainly: Nav 1.7 IWQ in vitro assay (IonWorks Quattro population patch-clamp). Format: cell-based. Conditions: HEK 293 cells stably transfected with Nav 1.7. On the procedure: Nav 1.7 or Nav 1.5 IWQ In Vitro Assay
hNav1.7, sequence (Q15858 whole entry): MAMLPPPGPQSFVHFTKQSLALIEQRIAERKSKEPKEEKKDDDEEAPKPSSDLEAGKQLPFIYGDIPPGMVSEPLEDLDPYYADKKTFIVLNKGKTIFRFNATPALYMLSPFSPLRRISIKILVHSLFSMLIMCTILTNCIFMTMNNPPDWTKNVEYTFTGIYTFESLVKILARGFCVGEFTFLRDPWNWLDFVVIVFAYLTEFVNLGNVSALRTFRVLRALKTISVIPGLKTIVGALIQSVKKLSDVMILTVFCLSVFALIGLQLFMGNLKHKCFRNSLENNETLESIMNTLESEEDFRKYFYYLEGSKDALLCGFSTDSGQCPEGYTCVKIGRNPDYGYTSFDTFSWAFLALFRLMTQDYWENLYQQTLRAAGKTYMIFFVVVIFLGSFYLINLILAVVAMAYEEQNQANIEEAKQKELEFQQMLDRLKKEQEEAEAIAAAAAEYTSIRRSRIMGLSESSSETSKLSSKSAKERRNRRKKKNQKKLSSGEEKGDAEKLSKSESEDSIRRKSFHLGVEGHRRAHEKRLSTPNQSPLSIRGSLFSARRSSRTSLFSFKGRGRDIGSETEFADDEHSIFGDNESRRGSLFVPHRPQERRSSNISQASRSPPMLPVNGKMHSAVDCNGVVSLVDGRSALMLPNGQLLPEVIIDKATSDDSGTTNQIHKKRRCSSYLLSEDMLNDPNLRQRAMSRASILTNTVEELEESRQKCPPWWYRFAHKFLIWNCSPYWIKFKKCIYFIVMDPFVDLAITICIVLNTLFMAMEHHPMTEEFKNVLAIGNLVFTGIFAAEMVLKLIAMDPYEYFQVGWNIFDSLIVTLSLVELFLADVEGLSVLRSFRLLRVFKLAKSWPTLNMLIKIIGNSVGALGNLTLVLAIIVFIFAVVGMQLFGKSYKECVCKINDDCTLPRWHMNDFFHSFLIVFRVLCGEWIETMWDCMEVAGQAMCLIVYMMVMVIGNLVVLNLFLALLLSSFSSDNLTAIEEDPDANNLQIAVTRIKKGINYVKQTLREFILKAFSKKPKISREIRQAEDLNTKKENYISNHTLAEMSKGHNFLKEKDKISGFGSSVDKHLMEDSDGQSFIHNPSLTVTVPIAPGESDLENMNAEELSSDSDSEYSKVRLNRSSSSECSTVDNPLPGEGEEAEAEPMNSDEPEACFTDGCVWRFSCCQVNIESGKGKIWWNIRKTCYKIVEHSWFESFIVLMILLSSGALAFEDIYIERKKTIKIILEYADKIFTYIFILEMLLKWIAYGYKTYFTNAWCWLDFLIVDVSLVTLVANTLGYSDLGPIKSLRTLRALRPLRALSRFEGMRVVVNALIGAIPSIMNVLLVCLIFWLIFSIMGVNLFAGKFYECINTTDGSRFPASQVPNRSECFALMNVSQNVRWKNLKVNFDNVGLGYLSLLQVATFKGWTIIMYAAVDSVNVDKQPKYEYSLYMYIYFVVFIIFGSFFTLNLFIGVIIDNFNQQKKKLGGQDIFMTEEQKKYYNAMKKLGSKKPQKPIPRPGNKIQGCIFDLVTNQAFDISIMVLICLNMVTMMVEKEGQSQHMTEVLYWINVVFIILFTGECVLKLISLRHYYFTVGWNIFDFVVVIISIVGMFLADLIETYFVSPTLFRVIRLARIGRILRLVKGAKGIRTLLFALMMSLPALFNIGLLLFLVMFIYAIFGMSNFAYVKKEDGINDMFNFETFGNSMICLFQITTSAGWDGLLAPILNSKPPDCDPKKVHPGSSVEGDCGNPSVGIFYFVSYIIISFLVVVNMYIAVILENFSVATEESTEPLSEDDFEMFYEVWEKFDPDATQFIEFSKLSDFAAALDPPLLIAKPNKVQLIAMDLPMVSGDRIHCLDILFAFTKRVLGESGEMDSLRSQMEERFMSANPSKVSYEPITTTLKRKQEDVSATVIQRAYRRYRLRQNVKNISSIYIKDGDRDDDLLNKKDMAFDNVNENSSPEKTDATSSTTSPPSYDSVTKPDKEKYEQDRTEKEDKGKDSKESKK
HEK 293 Cells stably transfected with either Nav 1.7 or Nav 1.5 were recorded in population patch-clamp mode with the IonWorks® Quattro automated electrophysiology system in accordance with the manufacturer's specifications (Molecular Devices, LLC, Sunnyvale, Calif.). Sodium channel currents were measured in response to a train of depolarizations that induced successively greater inactivation.
Cells were held at −110 mV for three seconds (Nav 1.7) or half a second (Nav 1.5) from a holding voltage of −15 mV, then put through a series of 26 pulses of 150 msec duration to −20 mV at a frequency of 5 Hz. Cells were then left unclamped for a period of 3 to 8 minutes while a single concentration of test compound was added. Cells were then reclamped and put through the same voltage protocol. Current at the end of the 26th pulse to −20 mV was subtracted from the peak current evoked by the 26th pulse to −20 mV to correct for leak current. Percent block was calculated for each concentration in duplicate, and IC50 curves were fitted to percent block as a function of concentration.
A general note: In patch-clamp work, channel activity is measured electrically.

The next data set addresses human Nav1.7 (Homo sapiens (Human), UniProt Q15858). Put plainly: Nav 1.7 in vitro PX assay (PatchXpress whole cell voltage clamp). Format: cell-based. The note with it: HEK 293 cells stably transfected with human Nav1.7, partially inactivated state, read-out: hNav1.7 PX IC50. On the procedure: Nav 1.7 In Vitro PX Assay
HEK 293 cells stably transfected with human Nav1.7 were recorded in whole cell voltage clamp mode with the PatchXpress automated electrophysiology system (Molecular Devices, LLC, Sunnyvale, Calif.). Compound effects were measured on a partially inactivated state of the sodium channel. Cells were clamped to a holding potential yielding 20 to 50% inactivation. To elicit sodium current, channels were activated by pulsing to −10 mV for 20 msec. This voltage protocol was repeated at a rate of 0.1 Hz throughout the experiment. A single concentration of test compound was applied to cells for a duration of 3 minutes. Peak sodium current was measured at the end of the compound addition period to determine percent inhibition. Three to five cells were tested per concentration, and IC50 curves were fitted to percent inhibition as a function of concentration.

human PXR, sequence (O75469 whole entry): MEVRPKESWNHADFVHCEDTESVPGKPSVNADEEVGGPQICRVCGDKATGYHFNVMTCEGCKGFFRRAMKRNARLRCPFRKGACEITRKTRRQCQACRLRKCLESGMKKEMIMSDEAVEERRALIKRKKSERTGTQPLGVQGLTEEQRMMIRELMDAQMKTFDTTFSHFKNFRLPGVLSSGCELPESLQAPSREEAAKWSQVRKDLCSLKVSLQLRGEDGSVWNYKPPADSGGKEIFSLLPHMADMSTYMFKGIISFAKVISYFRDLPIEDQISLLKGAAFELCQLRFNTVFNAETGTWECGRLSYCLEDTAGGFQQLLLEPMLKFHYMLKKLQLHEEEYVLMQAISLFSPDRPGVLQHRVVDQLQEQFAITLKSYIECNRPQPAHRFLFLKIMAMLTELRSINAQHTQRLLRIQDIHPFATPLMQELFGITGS
human Nav1.7, sequence (Q15858 whole entry): as the sequence (Q15858 whole entry) above

As a reminder, the pIC50 is −log10 of the IC50, conventionally taken in molar units. Regarding `COc1cc(C#C[C@@H]2C[C@H]2C(F)(F)F)c(F)cc1-n1c(=O)ccc2cc(S(=O)(=O)Nc3ccon3)ccc21` (stereo in doubt) [Example 4B, 1-(5-fluoro-2-methoxy-4-(((1R,2R)-2-(trifluoromethyl)cyclopropyl)ethynyl)phenyl)-N-3-isoxazolyl-2-oxo-1,2-dihydro-6-quinolinesulfonamide], the RLM in vitro in the data set “RLM in vitro” is less than 14.0 µL/min/mg. The “human PXR @ 2 uM POCS” value at human PXR is given as −3.81%. The pIC50 against hNav1.7 was 8.26.

In the case of `COc1cc(C#CC2CCCC(F)(F)C2)c(F)cc1-n1c(=O)ccc2cc(S(=O)(=O)Nc3ccon3)ccc21` (racemic) [Example 7, (P) 1-(4-((3,3-difluorocyclohexyl)ethynyl)-5-fluoro-2-methoxyphenyl)-N-(isoxazol-3-yl)-2-oxo-1,2-dihydroquinoline-6-sulfonamide], on hNav1.7, the pIC50 was 8.11.

In “RLM in vitro”, `COc1cc(C#CC2CCCC2)ccc1-n1c(=O)ccc2cc(S(=O)(=O)Nc3ccon3)ccc21` (atropisomer, axis not shown; (P)) [Example 3, (P)-1-(4-(cyclopentylethynyl)-2-methoxyphenyl)-N-(isoxazol-3-yl)-2-oxo-1,2-dihydroquinoline-6-sulfonamide] had an RLM in vitro of 39 µL/min/mg. Moreover, the “human PXR @ 2 uM POCS” value on human PXR was −1.44%. Moreover, the pIC50 at human Nav1.7 is 7.30; at hNav1.7, 8.12.

`COc1cc(C#CC2CCC(F)(F)CC2)c(F)cc1-n1c(=O)ccc2cc(S(=O)(=O)Nc3ccon3)ccc21` (atropisomer, axis not shown; (P)) [Example 1, (P)-1-(4-((4,4-difluorocyclohexyl)ethynyl)-5-fluoro-2-methoxyphenyl)-N-(isoxazol-3-yl)-2-oxo-1,2-dihydroquinoline-6-sulfonamide] returned an RLM in vitro in the data set “RLM in vitro” of less than 14.0 µL/min/mg. Further, on human PXR, the “human PXR @ 2 uM POCS” value came out at 2.36%. At hNav1.7, this molecule showed a pIC50 of 8.48.

For `COc1cc(C#CC2(C(F)(F)F)CC2)c(F)cc1-n1c(=O)ccc2cc(S(=O)(=O)Nc3ccon3)ccc21` (atropisomer, axis not shown; (P)) [Example 5, (P)-1-(5-fluoro-2-methoxy-4-((1-(trifluoromethyl)cyclopropyl)ethynyl)phenyl)-N-(isoxazol-3-yl)-2-oxo-1,2-dihydroquinoline-6-sulfonamide], the RLM in vitro in “RLM in vitro” was less than 14.0 µL/min/mg. For the same molecule, the “human PXR @ 2 uM POCS” value on human PXR was determined as 1.73%.

Molecule `COc1cc(C#C[C@H]2C[C@@H]2C(F)(F)F)c(F)cc1-n1c(=O)ccc2cc(S(=O)(=O)Nc3ccon3)ccc21` (stereo in doubt) [Example 4, (P)-1-(5-fluoro-2-methoxy-4-((2-(trifluoromethyl)cyclopropyl)ethynyl)phenyl)-N-(isoxazol-3-yl)-2-oxo-1,2-dihydroquinoline-6-sulfonamide] had a pIC50 against hNav1.7 of 8.15.

In the case of `COc1cc(C#CC2CCCC2)c(F)cc1-n1c(=O)ccc2cc(S(=O)(=O)Nc3cccnn3)ccc21` [Example 9], the RLM in vitro in “RLM in vitro” was found to be 32.2 µL/min/mg. In addition, at human PXR, the “human PXR @ 2 uM POCS” value is 11.80%. Moreover, the pIC50 at human Nav1.7 is 7.71; against hNav1.7, 8.05.

Regarding `COc1cc(C#C[C@H]2C[C@@H]2C(F)(F)F)c(F)cc1-n1c(=O)ccc2cc(S(=O)(=O)Nc3ccon3)ccc21` (atropisomer, axis not shown; (P)) [Example 4, (P)-1-(5-fluoro-2-methoxy-4-((2-(trifluoromethyl)cyclopropyl)ethynyl)phenyl)-N-(isoxazol-3-yl)-2-oxo-1,2-dihydroquinoline-6-sulfonamide], in “RLM in vitro”, the RLM in vitro is less than 14.0 µL/min/mg. In addition, at human PXR, the “human PXR @ 2 uM POCS” value is given as 13.54%.

In the case of `COc1cc(C#C[C@@H]2C[C@@H]2C(F)(F)F)c(F)cc1-n1c(=O)ccc2cc(S(=O)(=O)Nc3ccon3)ccc21` (single isomer, unassigned) [Example 4A], in “RLM in vitro”, the RLM in vitro was less than 14.0 µL/min/mg. For the same molecule, the “human PXR @ 2 uM POCS” value at human PXR was determined as 23.19%. The molecule also had a pIC50 at hNav1.7 of 8.17.

For `COc1cc(C#CC2CCCC2)c(F)cc1-n1c(=O)ccc2cc(S(=O)(=O)Nc3ccon3)ccc21` (atropisomer, axis not shown; (P)) [Example 10, (P)-1-(4-(cyclopentylethynyl)-5-fluoro-2-methoxyphenyl)-N-3-isoxazolyl-2-oxo-1,2-dihydro-6-quinoline Sulfonamide], the RLM in vitro in the data set “RLM in vitro” turned out to be 39.8 µL/min/mg. Besides, the “human PXR @ 2 uM POCS” value on human PXR is given as 2.94%.

`COc1cc(C#CC(C)(C)C(F)(F)F)c(F)cc1-n1c(=O)ccc2cc(S(=O)(=O)Nc3ccon3)ccc21` (atropisomer, axis not shown; (P)) [Example 2, (P)-1-(5-fluoro-2-methoxy-4-(4,4,4-trifluoro-3,3-dimethylbut-1-yn-1-yl)phenyl)-N-(isoxazol-3-yl)-2-oxo-1,2-dihydroquinoline-6-sulfonamide] registered an RLM in vitro in the data set “RLM in vitro” of less than 14.0 µL/min/mg. Also, the “human PXR @ 2 uM POCS” value at human PXR was determined as 1.38%. The pIC50 on hNav1.7 is 8.92.

`COc1cc(C#CC2CCCC2)c(Cl)cc1-n1c(=O)ccc2cc(S(=O)(=O)Nc3ccon3)ccc21` (atropisomer, axis not shown; (P)) [Example 6, (P)-1-(5-chloro-4-(cyclopentylethynyl)-2-methoxyphenyl)-N-(isoxazol-3-yl)-2-oxo-1,2-dihydroquinoline-6-sulfonamide] yielded an RLM in vitro in the data set “RLM in vitro” of 58 µL/min/mg. At human PXR, the “human PXR @ 2 uM POCS” value was −3.96%.

In the data set “RLM in vitro”, `COc1cc(C#CC2CCCC(F)(F)C2)c(F)cc1-n1c(=O)ccc2cc(S(=O)(=O)Nc3ccon3)ccc21` (atropisomer, axis not shown; (P)) [Example 7, (P) 1-(4-((3,3-difluorocyclohexyl)ethynyl)-5-fluoro-2-methoxyphenyl)-N-(isoxazol-3-yl)-2-oxo-1,2-dihydroquinoline-6-sulfonamide] displayed an RLM in vitro of less than 14.0 µL/min/mg. The “human PXR @ 2 uM POCS” value at human PXR is −0.78%.
